Laboratory results: ChEMBL document CHEMBL1201862, “PubChem BioAssay data set” (2004)
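In this assay, cells in 96-well plates receive the compound at five concentrations for 48 hours. Endpoints are linearly interpolated between the surrounding concentrations. GI50 is the concentration that inhibits growth by half.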 Activity calls are given as the source filed them. No stated cut-off is given here; in the data, active = GI50 up to about 1.1 µM and inactive = higher.

Legend:
Assay in all cases: DTP human tumour cell line panel, 48 h
[1] = tested on: OVCAR-4
[2] = tested on: SF-539
[3] = tested on: KM-20L2
[4] = tested on: RXF 393
[5] = tested on: SK-OV-3
[6] = tested on: HCT-15
[7] = tested on: MOLT-4
[8] = tested on: HL-60
[9] = tested on: KM12
[10] = tested on: SNB-19
[11] = tested on: SR
[12] = tested on: SF-295
[13] = tested on: SN12C
[14] = tested on: UO-31
[15] = tested on: SK-MEL-2
[16] = tested on: K562
[17] = tested on: HCT-116
[18] = tested on: NCI-H23

Row | Structure (SMILES) | GI50 [1] | GI50 [2] | GI50 [3] | GI50 [4] | GI50 [5] | GI50 [6] [µM] | GI50 [7] | GI50 [8] | GI50 [9] | GI50 [10] | GI50 [11] | GI50 [12] | GI50 [13] | GI50 [14] | GI50 [15] | GI50 [16] | GI50 [17] | GI50 [18]
1 | O=[N+]([O-])c1ccc(C2=Nc3ccccc3SC(c3ccccc3)C2)cc1 (configuration not stated) | 14.3 µM (inactive) | 21.4 µM (inactive) | 17.6 µM (inactive) | 24.6 µM (inactive) | 21 µM (inactive) | 16.3 | 15.1 µM (inactive) | 16.5 µM (inactive) | 17.1 µM (inactive) | 17 µM (inactive) | 18.2 µM (inactive) | 20.2 µM (inactive) | 17 µM (inactive) | 12.9 µM (inactive) | 18.4 µM (inactive) | 15.8 µM (inactive) | 11.9 µM (inactive) | –
2 | CCOCCOc1ccc(OCCOCC)cc1 | 6.04 µM (inactive) | > 10 µM (inactive) | 26.2 µM (inactive) | 18.1 µM (inactive) | > 81.8 µM (inactive) | 16.9 | 7.71 µM (inactive) | 3.4 µM (inactive) | 31.5 µM (inactive) | > 100 µM (inactive) | – | 25.4 µM (inactive) | 16.8 µM (inactive) | 13.6 µM (inactive) | > 43 µM (inactive) | 7.91 µM (inactive) | 17.2 µM (inactive) | 29.9 µM (inactive)
3 | COc1ccc(/C(Cl)=C(\C=O)c2ccc(OC)cc2)cc1 | 48.1 µM (inactive) | > 100 µM (inactive) | > 100 µM (inactive) | > 100 µM (inactive) | > 100 µM (inactive) | 43.7 | 7 µM (inactive) | 15.9 µM (inactive) | – | > 100 µM (inactive) | 10.8 µM (inactive) | 59.8 µM (inactive) | > 100 µM (inactive) | > 100 µM (inactive) | > 100 µM (inactive) | 63 µM (inactive) | 61.9 µM (inactive) | > 100 µM (inactive)
4 | CSCC(CO)NC(=O)/C=C/c1c(C)[nH]c(=O)[nH]c1=O (configuration not stated) | 31.9 µM (inactive) | > 875 µM (inactive) | 415 µM (inactive) | > 875 µM (inactive) | 641 µM (inactive) | 485 | 232 µM (inactive) | 197 µM (inactive) | 695 µM (inactive) | 791 µM (inactive) | – | > 875 µM (inactive) | 367 µM (inactive) | 557 µM (inactive) | 597 µM (inactive) | 117 µM (inactive) | 507 µM (inactive) | 690 µM (inactive)
5 | CC1OC(O)CC(OC(=O)c2ccccc2)C1OC(=O)c1ccccc1 (configuration not stated) | 15.1 µM (inactive) | 17.5 µM (inactive) | 66.2 µM (inactive) | 18.8 µM (inactive) | – | 15.3 | 13.9 µM (inactive) | 13.6 µM (inactive) | 39.6 µM (inactive) | 90.4 µM (inactive) | 13.2 µM (inactive) | 48 µM (inactive) | 17.3 µM (inactive) | – | – | 16.8 µM (inactive) | 11.3 µM (inactive) | 16 µM (inactive)
6 | CC(C)=CC(=O)OC1C2C(C)=CC(O)C(O)C2(C)C2C3(O)OCC24C(CC(=O)OC14)C(C)C3O (configuration not stated) | 0.0647 µM (active) | 0.0466 µM (active) | 0.354 µM (active) | 0.183 µM (active) | 3.13 µM (inactive) | 0.476 | 0.0225 µM (active) | 0.0251 µM (active) | 0.0791 µM (active) | 0.14 µM (active) | – | 0.28 µM (active) | 0.386 µM (active) | 2.32 µM (inactive) | 0.173 µM (active) | 0.0378 µM (active) | 0.0361 µM (active) | 0.0611 µM (active)
7 | Nc1cc(S(=O)(=O)O)cc2cc(S(=O)(=O)O)c(/N=N/c3ccc(-c4ccc(/N=N/c5c(S(=O)(=O)O)cc6cc(S(=O)(=O)O)cc(N)c6c5O)cc4)cc3)c(O)c12 | > 100 µM (inactive) | > 100 µM (inactive) | > 100 µM (inactive) | > 69.5 µM (inactive) | > 100 µM (inactive) | > 100 | > 100 µM (inactive) | > 100 µM (inactive) | > 100 µM (inactive) | > 100 µM (inactive) | – | > 100 µM (inactive) | > 100 µM (inactive) | > 100 µM (inactive) | > 100 µM (inactive) | > 100 µM (inactive) | > 100 µM (inactive) | > 100 µM (inactive)
8 | CCc1ccc(Nc2cc(=O)[nH]c(=S)n2C)cc1 | > 100 µM (inactive) | > 100 µM (inactive) | > 100 µM (inactive) | > 100 µM (inactive) | > 100 µM (inactive) | > 100 | > 100 µM (inactive) | > 100 µM (inactive) | > 100 µM (inactive) | > 100 µM (inactive) | > 100 µM (inactive) | > 100 µM (inactive) | > 100 µM (inactive) | > 100 µM (inactive) | > 100 µM (inactive) | > 100 µM (inactive) | > 100 µM (inactive) | > 100 µM (inactive)
9 | N[C@@H](CSCSC[C@H](N)C(=O)O)C(=O)O | > 225 µM (inactive) | > 225 µM (inactive) | > 164 µM (inactive) | > 225 µM (inactive) | > 225 µM (inactive) | > 225 | 195 µM (inactive) | 185 µM (inactive) | 126 µM (inactive) | 174 µM (inactive) | – | > 225 µM (inactive) | > 225 µM (inactive) | > 225 µM (inactive) | > 225 µM (inactive) | > 225 µM (inactive) | > 225 µM (inactive) | > 225 µM (inactive)
